From patent US6984653B2, “Heterocyclic compounds, oxazole derivatives, process for preparation of the same and use thereof” (Takeda Pharmaceutical Company Limited, priority 2001, dated 2006)

Tests used:
[1] = test system: human breast cancer cell BT-474; test: Inhibitory action on breast cancer cell BT-474 proliferation in vitro (SRB); format: cell-based; details: 120 h, BT-474 cells, cultured for 5 days, SRB staining, read-out: Cell growth inhibition BT-474 (IC50: μM)
Method: A suspension of human breast cancer cell BT-474 (100 μl (6,000 cells)) were sown to a 96-well microplate and cultured at 37° C. in the presence of 5% carbon dioxide. On the following day, 100 μl of a solution of each test compound, which was previously diluted 2-fold, was added, and the cells were cultured for 5 days. After the culture medium containing the test compound was removed, the cells were washed and fixed with 50% trichloroacetic acid, after which a 0.4% (w/v) SRB solution (dissolved in 1% acetic acid) was added to stain the cells (Skehan et al., Journal of the National Cancer Institute, Vol. 82, pp. 1107-1112, 1990). After the pigment solution was removed and the plate was washed with a 1% acetic acid solution, 100 μl of an extract (10 mM Tris solution) was added to dissolve the pigment; absorbance was measured at an absorption wavelength of 550 nm to quantify the amount of cells as protein content. Taking as 100% the absorbance for the control group, which received no test compound solution, the ratio of the absorbance for each treatment group was determined, and the compound concentration required to achieve 50% suppression of the residual cell content relative to the control (IC50 value) was calculated.

HER2 = biological target: T1, HER2 (Homo sapiens, UniProt P04626); test: Suppression of receptor tyrosine-phosphorylation in human breast cancer cells BT-474; format: cell-based; details: BT-474 cells, 2 hours with test compound, anti-phosphotyrosine antibody blot; read-out: Inhibition of intracellular HER2 phosphorylation BT-474 (IC50: μM)
T1 construct: Taking as 100% the amount of phosphorylation of the HER2 tyrosine in control group; endogenous in cells; host or cells: BT-474 human breast cancer cells
Method: A suspension of human breast cancer cell BT-474 (500 μl (300,000 cells)) were sown into a 24-well plate, and cultured at 37° C. in the presence of 5% carbon dioxide. On the following day, 250 μl of a solution of the test compound, which was previously 4-fold diluted, was added. After 2 hours, the extraction was added to stop the reaction and the protein was extracted. This protein was subjected to protein electrophoresis to separate and transferred to a nylon filter. This filter was reacted with an anti-phosphotyrosine antibody; the reaction product was luminated. The amount of film photosensitization was determined using an image analyzer. Taking as 100% the amount of phosphorylation of the HER2 tyrosine in control group, the ratio of the amount of phosphorylation of the HER2 tyrosine in each group receiving a solution of the test compound at each concentration was determined, and the test compound concentration required to achieve 50% suppression by the test compound of the amount of phosphorylation of HER2 tyrosine (IC50 value) was calculated.

T1 sequence (P04626 23-1255): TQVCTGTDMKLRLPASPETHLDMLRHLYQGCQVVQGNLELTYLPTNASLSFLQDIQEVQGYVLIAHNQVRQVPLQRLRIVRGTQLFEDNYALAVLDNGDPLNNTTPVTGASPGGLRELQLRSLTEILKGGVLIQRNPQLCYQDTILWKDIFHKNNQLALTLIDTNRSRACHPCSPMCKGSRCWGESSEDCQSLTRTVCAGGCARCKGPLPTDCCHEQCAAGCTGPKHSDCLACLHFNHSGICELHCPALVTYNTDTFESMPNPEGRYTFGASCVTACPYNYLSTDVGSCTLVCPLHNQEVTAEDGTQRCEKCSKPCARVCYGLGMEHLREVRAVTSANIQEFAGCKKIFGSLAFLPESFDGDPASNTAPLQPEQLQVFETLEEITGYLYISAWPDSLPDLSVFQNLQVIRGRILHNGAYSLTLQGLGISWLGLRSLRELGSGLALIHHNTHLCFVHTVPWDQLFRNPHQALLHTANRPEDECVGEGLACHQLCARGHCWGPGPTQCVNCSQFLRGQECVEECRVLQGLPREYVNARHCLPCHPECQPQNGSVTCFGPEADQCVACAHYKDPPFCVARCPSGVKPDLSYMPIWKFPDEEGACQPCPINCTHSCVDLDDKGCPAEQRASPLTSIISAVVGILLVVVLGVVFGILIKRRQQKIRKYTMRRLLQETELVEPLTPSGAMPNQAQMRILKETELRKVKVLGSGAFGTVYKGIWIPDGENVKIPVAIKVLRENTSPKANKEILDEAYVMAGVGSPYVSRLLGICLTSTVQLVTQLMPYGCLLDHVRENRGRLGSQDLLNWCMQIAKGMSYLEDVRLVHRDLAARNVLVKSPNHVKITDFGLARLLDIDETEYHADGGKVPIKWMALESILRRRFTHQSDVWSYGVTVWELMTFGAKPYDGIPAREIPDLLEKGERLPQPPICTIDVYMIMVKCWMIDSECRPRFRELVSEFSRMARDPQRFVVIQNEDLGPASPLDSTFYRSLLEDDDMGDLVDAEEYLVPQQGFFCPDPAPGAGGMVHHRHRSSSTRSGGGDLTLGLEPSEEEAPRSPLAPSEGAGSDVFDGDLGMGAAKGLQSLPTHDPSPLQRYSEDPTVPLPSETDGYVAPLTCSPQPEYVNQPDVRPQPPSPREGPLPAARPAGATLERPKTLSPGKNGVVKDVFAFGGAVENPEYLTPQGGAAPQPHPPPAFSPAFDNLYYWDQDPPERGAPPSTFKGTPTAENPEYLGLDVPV

| IC50 [1] | IC50 (HER2) | SMILES |
| --- | --- | --- |
| – | < 4 µM | CS(=O)(=O)CCc1nccn1CCCCc1ccc(OCc2coc(/C=C/c3ccc(F)cc3)n2)cc1 [Example 11, 2-[(E)-2-(4-fluorophenyl)ethenyl]-4-[[4-[4-[2-[2-(methylsulfonyl)ethyl]-1H-imidazol-1-yl]butyl]phenoxy]methyl]-1,3-oxazole] |
| 0.15 µM | < 4 µM | CS(=O)(=O)NCCc1nccn1CCCCc1ccc(OCc2coc(/C=C/c3ccc(C(F)(F)F)cc3)n2)cc1 [Example 16, N-[2-[1-[4-[4-[[2-[(E)-2-[4-(trifluoromethyl)phenyl]ethenyl]-1,3-oxazol-4-yl]methoxy]phenyl]butyl]-1H-imidazol-2-yl]ethyl]methanesulfonamide] |
| – | < 4 µM | CS(=O)(=O)CCc1nccn1CCCCc1ccc(OCc2coc(/C=C/c3ccc(C(F)(F)F)cc3)n2)cc1 [Example 17, 4-[[4-[4-[2-[2-(methylsulfonyl)ethyl]-1H-imidazol-1-yl]butyl]phenoxy]methyl]-2-[(E)-2-[4-(trifluoromethyl)phenyl]ethenyl]-1,3-oxazole] |

More lines, now with the values behind:

| SMILES | IC50 [1] | IC50 (HER2) |
| --- | --- | --- |
| CC(C)NC(=O)OCCc1nccn1CCCCc1ccc(OCc2coc(/C=C/c3ccc(C(F)(F)F)cc3)n2)cc1 [Example 1, 2-[1-[4-[4-[[2-[(E)-2-[4-(trifluoromethyl)phenyl]ethenyl]-1,3-oxazol-4-yl]methoxy]phenyl]butyl]-1H-imidazol-2-yl]ethyl isopropylcarbamate] | < 0.05 µM | < 4 µM |
| O=C(OCCc1nccn1CCCCc1ccc(OCc2coc(/C=C/c3ccc(C(F)(F)F)cc3)n2)cc1)N1CCCC1 [Example 3, 2-[1-[4-[4-[[2-[(E)-2-[4-(trifluoromethyl)phenyl]ethenyl]-1,3-oxazol-4-yl]methoxy]phenyl]butyl]-1H-imidazol-2-yl]ethyl 1-pyrroridinecarboxylate] | < 0.05 µM | < 4 µM |
| CN(C)C(=O)CCc1nccn1CCCCc1ccc(OCc2coc(/C=C/c3ccc(C(F)(F)F)cc3)n2)cc1 [Example 5, N,N-dimethyl-3-[1-[4-[4-[[2-[(E)-2-[4-(trifluoromethyl)phenyl]ethenyl]-1,3-oxazol-4-yl]methoxy]phenyl]butyl]-1H-imidazol-2-yl]propanamide] | < 0.05 µM | < 4 µM |
| O=C(CCc1nccn1CCCCc1ccc(OCc2coc(/C=C/c3ccc(C(F)(F)F)cc3)n2)cc1)N1CCCC1 [Example 6, 1-{3-[1-(4-{4-[(2-{(E)-2-[4-(trifluoromethyl)phenyl]ethenyl}-1,3-oxazol-4-yl)methoxy]phenyl}butyl)-1H-imidazol-2-yl]propanoyl}pyrrolidine] | < 0.05 µM | < 4 µM |
